{
  "source": "patent US6905852B1",
  "about": "“Herbicide-resistant protoporphyrinogen oxidase isolated from Nicotiana tabacum” (Nihon Nohyaku Co., Ltd., priority 1997, dated 2005)",
  "key": {"[1]": {"test_system": "transformed tobacco plant, Tobacco wild type (pBI-NtPX-HC)", "assay": "Leaf disk method, bleaching", "format": "cell-based, N. Tabacum var. SR1", "protocol": "(§1) The A. tumefacience having the binary vector which had been stored at −80° C. was cultured with shaking at 27° C. for 24 hours in 523 liquid medium (1% sucrose, 0.8% Bacto-tryptone, 0.4% Bacto-yeast extract, 0.2% K2HPO4, 0.03% MgSO4.7H2O) containing kanamycin. A disk (9 mm diameter) of a tobacco (N. Tabacum var. SR1) leaf which had been surface sterilized was immersed for one minute into the culture of the A. tumefacience, and then the culture liquid attached thereon was removed with a sterilized paper towel. The leaf disk was transferred into MS agar medium containing 0.6% agar in which 2 ppm NAA and 0.2 ppm BA were added, with the reverse side of leaf being made upside, and incubated at 25° C. for 48 hours. The leaf disk was transferred into MS liquid medium containing 500 ppm carbenicillin, 200 ppm claforan, 2 ppm NAA and 0.2 ppm BA and cultured with shaking at 27° C. for 48-72 hours to remove A. tumefacience. The leaf disk was transferred into MS liquid medium containing 0.6% agar, 100 ppm of carbenycillin, 200 ppm of claforan and 150 ppm of kanamycin, 2 ppm NAA and 0.2 ppm BA and incubated at 27° C. for 2-3 weeks and formation of shoot was induced. The shoot was transferred into medium for root development (½ MS, 0.02 ppm IBA, 1.5% sucrose, 0.2% gellan gum) and development of root was introduced. The young plant thus obtained was transferred into culture soil, and was grown in a green house.\n(§2) From the transformed plant with which the confirmation of introduction of gene was finished, and non-transformed plant used as a control, a leaf almost the same position of the leaf was picked and 9 mm diameter leaf disks were prepared, and floated on a dish in which 0, 125, 250, 1,250, 2,500, 5,000, 12,500 nM of compound A aqueous solution were contained. After incubation at 27° C. for one week under continuous strong light, the bleaching of the leaf disks was observed, and the permissive concentration to compound A was calculated. As a result (Table 7), in case that the tolerant type of protoporphirinogen oxidase cDNA from tobacco was introduced by pBI-NtPX-RC, more than 100 times of tolerance was observed comparing to the control non-transformed plant. However, in case that rsistant type cDNA from Arabidopsis thaliana was introduced by pBI-AtPX-RC, 4 times of resistance was observed comparing to the control, and in case that the wild type cDNA was introduced, high resistance was not observed in each case."}, "[2]": {"test_system": "transformed tobacco plant, Tobacco resistant type (pBI-NtPX-RC)", "assay": "Leaf disk method, bleaching", "format": "cell-based, N. Tabacum var. SR1", "protocol": "as §1, §2"}},
  "data": [
    {"smiles": "CCOC(=O)COc1cc(-c2nn(C)c(OC(F)F)c2Cl)c(F)cc1Cl", "note": "[Compound A, ethyl 2-chloro-5-(4-chloro-5-difluoromethoxy-1-methyl-1H-pyrazol-3-yl)-4-fluorophenoxyacetate]", "values": [
      {"measurement": "Permission conc. to compound A", "setting": "[1]", "value": 500, "unit": "nM"},
      {"measurement": "Resistance", "setting": "[1]; vs non-transformed", "value": 4, "unit": "X"},
      {"measurement": "Permission conc. to compound A", "setting": "[2]", "value": ">12,500 nM"}
    ]}
  ]
}
